Legend:
HCC36 cells = assay: Trypan blue exclusion assay of C1GALT1-enhanced cell viability with MET inhibitor; type: cell-based, human; details: HCC36, C1GALT1 overexpression, 72 hours
Protocol: (§1) Cells (4×10^4) are seeded in each well of 6-well plates with DMEM containing 10% FBS. Viable cells are analyzed by Trypan blue exclusion assay at 0, 24, 48, and 72 hours. Cell proliferation is evaluated by immunostaining with anti-Ki67 antibody (1:1000; Vector Laboratories). For cell-cycle analysis, 1×10^6 cells are stained with propidium iodide (Sigma) for 30 minutes. The percentages of cells in G1, S, and G2M phases are analyzed by flow cytometry (Becton Dickinson). […] Data are represented as means±SD from three independent experiments (** refers to P<0.01).

Sk-Hep1 cells = assay: as above; type: cell-based, human; details: Sk-Hep1, C1GALT1 overexpression, 72 hours
Protocol: as §1

C1GALT1 [1] = assay: FITC-VVA FACS analysis of Tn antigen accumulation in T47D breast cancer cells; type: cell-based, human; details: mock and C1GALT1 overexpressed T47D transfectants, itraconazole 10 ug/ml
Protocol: (§2) FIGS. 86A-86D are graphs illustrating that itraconazole impairs C1GALT1 function leading to the accumulation of Tn antigen expression in breast cancer cells in accordance with an embodiment of the present invention. […] After itraconazole treatment, cells are detached with 5 mM EDTA. Afterwards, FITC conjugated Vicia villosa agglutinin (VVA), lectin specifically recognizing Tn antigen, is applied for analysis with a fluoresencce-activated cell sorting (FACS) system. A right-shift of the VVA peak indicates the accumulation of Tn antigens. […] After itraconazole treatment, cells are detached with 5 mM EDTA and treated with or without 10 mU/ml neuraminidase to unmask the effects of sialylated O-glycans. After treatment with neuraminidase, FITC conjugated Vicia villosa agglutinin (VVA), lectin specifically recognizing Tn antigen, is applied for analysis with a fluoresencce-activated cell sorting (FACS) system. […] To confirm whether the peak shift is a result of impaired C1GALT1 function, mock and C1GALT1 overexpressed T47D cells are analyzed. […] Overexpression of C1GALT1 results in a left-shift of the VVA peak in itraconazole-untreated transfectants, indicating intact C1GALT1 function in depleting Tn antigens as substrates for T antigen synthesis.

HCC36 cell lines = assay: MTT cell growth assay, liver cancer cells; type: cell-based, human; set-up: dose or concentration left out as unconfirmed; details: HCC36, itraconazole for 5 days, compared with control (DMSO)
Protocol: (§3) FIG. 88C is a schematic diagram illustrating that itraconazole suppresses liver cancer cell growth in accordance with an embodiment of the present invention. To determine whether impairing C1GALT1 function affects liver cancer cell malignant phenotypes, the effects of itraconazole on liver cancer cell growth are analyzed by MTT cell growth assay in HCC36 cell lines. Cells (3×10^3) are seeded into 96-well microtitre plates and treated with DMSO (control) or itraconazole 10 µg/ml for 5 days at 37° C. under 5% CO2 atmosphere. Results from two independent experiments are presented as mean±SD and analyzed with student's t-test, *p<0.05 and **p<0.01.

T47D cell lines = assay: MTT cell growth assay, breast cancer cells (itraconazole); type: cell-based, human; set-up: dose or concentration left out as unconfirmed; details: itraconazole for 5 days, compared with control (DMSO)
Protocol: as §3, with “88B” for “88C”, “breast” for “liver”, “T47D” for “HCC36”

CL1-5 cell lines = assay: MTT cell growth assay, lung cancer cells; type: cell-based, human; set-up: dose or concentration left out as unconfirmed; details: CL1-5, itraconazole for 5 days, compared with control (DMSO)
Protocol: as §3, with “88A” for “88C”, “lung” for “liver”, “CL1-5” for “HCC36”

C1GALT1 [2] = molecular target: T1, C1GALT1 (Homo sapiens, UniProt Q9NS00); assay: FITC-VVA FACS analysis of Tn antigen accumulation in HCC36 liver cancer cells; type: cell-based; set-up: endogenous in cells; details: for VVA peak shift (accumulation of Tn antigens): itraconazole 10 ug/ml
From the text: According to another embodiment of the present invention, in the experiment in vitro, itraconazole, a small molecular drug, is used as the C1GALT1 inhibition substance. Itraconazole is an FDA approved drug that is clinically employed as an antimicrobial for the treatment of fungal, mycosis, and candida infections. The inventors of the present invention discovered that the structure of itraconazole is suitable for binding to the catalytic domain of C1GALT1 and inhibiting C1GALT1. Cells are cultured in DMEM with 10% FBS and treated with itraconazole 10 ug/ml for 3 days at 37° C. under 5% CO2.
as §2, with “FIGS. 87A-87D are graphs” for “FIGS. 86A-86D are graphs”, “leading to accumulation of” for “leading to the accumulation of”, “expression in […] cancer cells” for “expression in breast cancer cells”, “right-shift of VVA peak” for “right-shift of the VVA peak”, “C1GALT1 overexpressed HCC36 cells are” for “C1GALT1 overexpressed T47D cells are”, “results in left-shift of” for “results in a left-shift of”
Target sequence in this assay (Q9NS00 whole entry, the tested form may be a part): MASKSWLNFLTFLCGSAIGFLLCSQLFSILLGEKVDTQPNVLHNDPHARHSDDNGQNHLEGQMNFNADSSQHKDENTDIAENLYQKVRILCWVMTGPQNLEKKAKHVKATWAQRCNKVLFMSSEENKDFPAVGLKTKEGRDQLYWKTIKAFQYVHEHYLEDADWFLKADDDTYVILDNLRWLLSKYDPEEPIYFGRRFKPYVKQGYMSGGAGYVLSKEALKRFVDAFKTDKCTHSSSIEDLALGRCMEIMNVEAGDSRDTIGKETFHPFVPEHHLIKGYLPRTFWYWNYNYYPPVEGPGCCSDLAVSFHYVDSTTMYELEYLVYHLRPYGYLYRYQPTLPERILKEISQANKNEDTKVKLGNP

C1GALT1 [3] = molecular target: T1, C1GALT1; assay: FITC-VVA FACS analysis of Tn antigen accumulation in CL1-5 lung cancer cells; type: cell-based; set-up: endogenous in cells; details: for VVA peak shift (accumulation of Tn antigens): itraconazole 10 ug/ml
Protocol: as §2, with “85A-85D” for “86A-86D”, “lung” for “breast”, “indicates” for “indicates the”, “CL1-5” for “T47D”, “itraconazole untreated” for “itraconazole-untreated”
Target sequence in this assay (Q9NS00 whole entry, the tested form may be a part): as above

C1GALT1 [4] = molecular target: T1, C1GALT1; assay: FITC-VVA FACS analysis of Tn antigen accumulation in T47D breast cancer cells; type: cell-based; set-up: endogenous in cells; host or cells: T47D breast cancer cells
Protocol: as §2

| VVA peak shift (accumulation of Tn antigen substrates) (C1GALT1 [2]; C1GALT1 overexpressed HCC36 cells, sialylated O-glycans unmasked by neuraminidase) | VVA peak shift (accumulation of Tn antigens) (C1GALT1 [2]; HCC36 parental cells, regardless of sialylated O-glycans) | VVA peak shift (accumulation of Tn antigens) (C1GALT1 [2]; mock and C1GALT1 overexpressed HCC36 transfectants) | VVA peak shift (accumulation of Tn antigen substrates) (C1GALT1 [3]; C1GALT1 overexpressed CL1-5 cells, sialylated O-glycans unmasked by neuraminidase) | VVA peak shift (accumulation of Tn antigens) (C1GALT1 [3]; CL1-5 parental cells, regardless of sialylated O-glycans) | VVA peak shift (accumulation of Tn antigens) (C1GALT1 [3]; mock and C1GALT1 overexpressed CL1-5 transfectants) | VVA peak shift (accumulation of Tn antigen substrates) (C1GALT1 [4]; C1GALT1 overexpressed T47D cells, sialylated O-glycans unmasked by neuraminidase) | VVA peak shift (accumulation of Tn antigens) (C1GALT1 [4]; T47D parental cells, itraconazole 10 ug/ml, regardless of sialylated O-glycans) | SMILES | C1GALT1-enhanced cell viability (HCC36 cells) | C1GALT1-enhanced cell viability (Sk-Hep1 cells) | VVA peak shift (accumulation of Tn antigens) (C1GALT1 [1]) | liver cancer cell growth (HCC36 cell lines) | breast cancer cell growth (T47D cell lines) | lung cancer cell growth (CL1-5 cell lines) |
| --- | --- | --- | --- | --- | --- | --- | --- | --- | --- | --- | --- | --- | --- | --- |
|  |  |  |  |  |  |  |  | Cc1[nH]c(/C=C2\C(=O)Nc3ccc(S(=O)(=O)Cc4c(Cl)cccc4Cl)cc32)c(C)c1C(=O)N1CCC[C@@H]1CN1CCCC1 [PHA665752] | significantly inhibited | significantly inhibited |  |  |  |  |
| major peak shifts to the right | right shift of the VVA peak | major right-shift of the VVA peaks | major peak shifts to the right | right shift of the VVA peak | major right-shift of the VVA peaks | major peak shifts to the right | right shift of the VVA peak | CCC(C)n1ncn(-c2ccc(N3CCN(c4ccc(OCC5COC(Cn6cncn6)(c6ccc(Cl)cc6Cl)O5)cc4)CC3)cc2)c1=O (centres unmarked) [itraconazole] |  |  | major right-shift of the VVA peaks | significantly suppressed | significantly suppressed | significantly suppressed |
